The target in the test is T1, human cardiac ion channel proteins hKir3.1/Kir3.4 (Homo sapiens, UniProt P48544+P48549).
T1 construct: expressed in transfected cells
T1 sequence (P48549 1-501): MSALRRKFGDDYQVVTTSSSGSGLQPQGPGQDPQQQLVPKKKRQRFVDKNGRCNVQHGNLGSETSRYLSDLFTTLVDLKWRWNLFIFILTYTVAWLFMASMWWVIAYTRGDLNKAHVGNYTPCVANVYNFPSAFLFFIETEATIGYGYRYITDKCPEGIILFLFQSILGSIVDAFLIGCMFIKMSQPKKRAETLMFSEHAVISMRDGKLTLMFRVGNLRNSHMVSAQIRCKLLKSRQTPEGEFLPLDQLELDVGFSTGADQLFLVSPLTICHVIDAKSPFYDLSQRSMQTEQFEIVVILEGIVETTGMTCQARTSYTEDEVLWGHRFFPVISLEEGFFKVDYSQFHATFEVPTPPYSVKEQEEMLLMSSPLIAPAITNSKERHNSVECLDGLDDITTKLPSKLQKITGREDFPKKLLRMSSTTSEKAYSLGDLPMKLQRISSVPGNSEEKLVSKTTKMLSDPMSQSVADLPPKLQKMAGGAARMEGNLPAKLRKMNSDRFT
T1 sequence (P48544 1-419): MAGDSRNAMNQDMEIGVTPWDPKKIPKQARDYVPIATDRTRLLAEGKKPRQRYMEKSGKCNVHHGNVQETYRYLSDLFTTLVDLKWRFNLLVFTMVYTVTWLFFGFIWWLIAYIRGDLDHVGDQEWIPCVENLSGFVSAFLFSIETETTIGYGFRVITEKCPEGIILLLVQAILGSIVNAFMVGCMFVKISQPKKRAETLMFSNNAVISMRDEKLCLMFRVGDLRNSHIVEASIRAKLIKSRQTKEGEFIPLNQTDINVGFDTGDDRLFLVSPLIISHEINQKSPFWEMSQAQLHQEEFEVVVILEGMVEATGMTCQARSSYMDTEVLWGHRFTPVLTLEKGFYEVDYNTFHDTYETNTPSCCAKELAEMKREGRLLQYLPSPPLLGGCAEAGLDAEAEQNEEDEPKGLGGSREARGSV
Put plainly: Atomic Absorption Screening (AAS) Rb efflux assay of hKir3.1/Kir3.4 block, carbachol/high K+ stimulated, 10-pt or 7-pt CR. The test is classed as cell-based. The text has this:
Human KCNJ3 encoding Kir3.1 (Genbank acc. No. NM_002239) was inserted between EcoRI and NotI in the pIRESneo3 vector (Clontech Laboratories, Inc. CA, USA). Human KCNJ5 encoding Kir3.4 (Genbank Acc. No. BC069482) was inserted between EcoR1 and Not1 in the pIRESpuro3 vector (Clontech Laboratories, Inc. CA, USA). A Kozak sequence (GCCACC) was introduced before the start codon ATG of both constructs. Chinese Hamster Ovary K1, CHO-FLP/IN, cells (Invitrogen Corporation, Paisley, UK) were transfected simultaneously using Lipofectamine 2000 reagent (Invitrogen Corporation, Paisley, UK). Geneticin 600 μg/mL (Invitrogen Corporation, Paisley, UK) and puromycin 3 μg/mL (BD Bioscience) were added to the cell culture medium 3 days after transfection. Two weeks after transfection, colonies had appeared and were manually picked and sorted to one cell per well in a 96-well plate. Cells were then tested for Kir3.1 and Kir3.4 expression using membrane potential assay, Western Blot and Immunocytochemistry. […] The cell line was re-sorted by flow cytometry and resulting clones were assayed electrophysiologically using IonWorks (Molecular Devices) and later validated on the Q-Patch (Sophion A/S).
The stable cell line was cultured in DMEM/F12 with Glutamax 1 (Invitrogen Corporation, Paisley, UK), supplemented with foetal bovine serum 10%, puromycin 3 μg/mL, hygromycin 300 μg/mL and geneticin 600 μg/mL (Invitrogen Corporation, Paisley, UK). Care was taken not to seed cells at too low density and cells were passaged at approximately 70-80% confluency. Cells used for patch-clamp experiments were prepared by washing using PBS (—Mg, —Ca^2+), 2 times, detached using Accutase (Sigma). For Q-Patch measurements, storage medium was prepared fresh by adding 1.25 mL of 1M Hepes (GibcoBRL) to 50 mL CHO-SFM II medium (GibcoBRL) and detached cells were diluted to 2 million cells/mL in this medium. Frozen (Cryopreserved) cells were used for Atomic Absorption Screening (AAS) and plated poly-D-lysine 384-well plates (Greiner) at a density of 11,000-13,000 cells/well, the day before assay.
The blocking effects of compounds on the human cardiac ion channel proteins hKir3.1/Kir3.4 were assessed in CHO-K1 cells stably expressing the channel proteins using Atomic Absorption Screening (AAS). Cells were washed and then loaded with 25 μL Rb-loading buffer for three hours at 37° C. After that, the cells were washed again and 25 μL of diluted compound was transferred to the cell plate, incubated for 5 min in RT, and then […] of Carbachol/high K+ (10 μM carbachol and 20 mM KCl final concentration) buffer added to stimulate the cells and open the Kir3.1/Kir3.4 channel. After 10 min stimulation, […] of the supernatant was transferred to a new microplate, 45 μL washing buffer added to the supernatant and the level of Rb in the supernatant was then measured using an Aurora ICR 8000. Compounds were studied at concentrations ranging from 0.003 to 67 μmol/L (dilutions by three, 10-pt CR) or from 0.037 to 27 μmol/L (dilutions by three, 7-pt CR).
Stock solutions of compounds were prepared in DMSO 10 mM and stored at RT. Buffers used for AAS contained (in mM): HEPES 20, NaCl 150, MgCl2 1.0, CaCl2 2.0 and NaH2PO4 0.8 and Glucose 10 (wash 1) or KCl 5 and Glucose 5 (wash 2) or KCl 5 (dilution buffer). The High K^+ channel opener buffer contained (in mM): HEPES 20, NaCl 130, MgCl2 1.0, CaCl2 2.0 and NaH2PO4 0.8 together with KCl 20. Solutions used for Q-Patch (extracellular) in mM: NaCl 145, KCl 4, CaCl2 2.0, MgCl2 1.0, HEPES 10 and glucose 10. The high K^+ extra cellular solution used for Q-Patch in mM: NaCl 96.7, KCl 50.7, CaCl2 2.0, MgCl2 1.0, HEPES 10 and glucose 10 while the intra cellular solution used was (in mM): KCl 120, CaCl2 5.374, MgCl2 1.75, EGTA 10, KOH 3.125, HEPES 10, Na2ATP 4.
Results are given as mean IC50 of >4 replicates (10-pt CR, AAS) or >3 replicates (7-pt CR, AAS). Some of the data in Table 1 are mean values of two or more runs. […]

Setting [1] is: 10-pt CR (0.003 to 67 μmol/L), AAS Rb efflux, CHO-K1 cells expressing hKir3.1/Kir3.4, mean of >4 replicates, read-out: IKACh IC50 10-pt CR, AAS.
Setting [2] is: printed as IC50 >67 μM in the 10-pt CR assay or IC50 >27 μM in the 7-pt CR assay, assay format per compound not stated, read-out: IC50.

Like-named read-outs stand apart in the source and are kept apart here.

As to `CCC[C@@H](CN1C[C@H](O)[C@H]1C)N(C)C(=O)c1ccc(F)cc1` (relative stereo) [Example 43.2, 4-Fluoro-N—((S)-1-((2R*,3S*)-3-hydroxy-2-methylazetidin-1-yl)pentan-2-yl)-N-methylbenzamide], the IC50 under setting [1] turned out to be 9100 nM.
As to `CCC[C@@H](CN1C[C@H](O)[C@H]1C)N(C)C(=O)c1ccc(F)c(F)c1` (relative stereo) [Example 43.3, 3,4-Difluoro-N—((S)-1-((2R*,3S*)-3-hydroxy-2-methylazetidin-1-yl)pentan-2-yl)-N-methylbenzamide], under setting [1], the IC50 was 2700 nM.
Turning to `CN(C(=O)c1ccc(F)c(F)c1)[C@H](CN1CC(O)C1)C1CCCC1` (single isomer, unassigned) [32.1, isomer 1], under setting [1], the half-inhibitory concentration (IC50) was 260 nM.
Turning to `CN(C(=O)c1ccc(F)c(F)c1)[C@H](CN1CC(O)C1)C1CCCC1` (single isomer, unassigned) [32.1, isomer 2], under setting [1], the IC50 is 2300 nM.
Take `COc1ccc(C(=O)N(C)C(CN2CC(O)C2)C2CCCC2)cc1` (single isomer, unassigned) [32.2, isomer 1]: under setting [1], the IC50 is 580 nM.
Still for that read-out and setting: then `COc1ccc(C(=O)N(C)C(CN2CC(O)C2)C2CCCC2)cc1` (single isomer, unassigned) [32.2, isomer 2], with 15000 nM.
On the same count and under the same terms, then `CN(C(=O)c1ccc(Cl)cc1)C(CN1CC(O)C1)C1CCCC1` (single isomer, unassigned) [32.3, isomer 1], with 55 nM; and `CN(C(=O)c1ccc(Cl)cc1)C(CN1CC(O)C1)C1CCCC1` (single isomer, unassigned) [32.3, isomer 2], with 300 nM; and `Cc1cc(C(=O)N(C)C(CN2CC(O)C2)C2CCCC2)ccc1F` (single isomer, unassigned) [32.4, isomer 1], with 34 nM.
With `Cc1cc(C(=O)N(C)C(CN2CC(O)C2)C2CCCC2)ccc1F` (single isomer, unassigned) [32.4, isomer 2], the IC50 under setting [1] was 980 nM.
For the molecule `CN(C(=O)c1ccc(C#N)cc1)C(CN1CC(O)C1)C1CCCC1` (single isomer, unassigned) [32.5, isomer 1], the 50% inhibitory concentration (IC50) under setting [1] worked out at 340 nM.
For `CN(C(=O)c1ccc(C#N)cc1)C(CN1CC(O)C1)C1CCCC1` (single isomer, unassigned) [32.5, isomer 2], the half-maximal inhibitory concentration (IC50) under setting [1] came out at 7500 nM.
As for `CN(C(=O)c1ccc(F)cc1Cl)C(CN1CC(O)C1)C1CCCC1` (single isomer, unassigned) [32.6, isomer 1], the IC50 under setting [1] was found to be 1100 nM.
Regarding `CN(C(=O)c1ccc(F)cc1Cl)C(CN1CC(O)C1)C1CCCC1` (single isomer, unassigned) [32.6, isomer 2], under setting [1], the half-inhibitory concentration (IC50) was found to be 2300 nM.
For the molecule `CN(C(=O)c1ccc(F)c(Cl)c1)C(CN1CC(O)C1)C1CCCC1` (single isomer, unassigned) [32.7, isomer 1], the IC50 under setting [1] is 75 nM.
Still for that read-out and setting: then `CN(C(=O)c1ccc(F)c(Cl)c1)C(CN1CC(O)C1)C1CCCC1` (single isomer, unassigned) [32.7, isomer 2], with 160 nM.
For `CC[C@H](C)C(CN1CC(O)C1)N(C)C(=O)c1ccc(F)c(F)c1` (stereo in doubt) [Example 29.1, 3,4-Difluoro-N-((2S,3S)-1-(3-hydroxyazetidin-1-yl)-3-methylpentan-2-yl)-N-methylbenzamide], the IC50 under setting [1] was determined as 9300 nM.
In the case of `CC(C)[C@@H](CN1CC[C@H](O)C1)N(C)C(=O)c1cc(F)cc(F)c1F` [2,3,5-Trifluoro-N-[(1S)-1-{[(3S)-3-hydroxypyrrolidin-1-yl]methyl}-2-methylpropyl]-N-methylbenzamide], the IC50 under setting [2] was above 27000 nM.
On the same count and under the same terms, then `CC(C)[C@@H](CN1CCCCC1)N(C)C(=O)c1cc(F)cc(F)c1F` [2,3,5-Trifluoro-N-methyl-N-[(1S)-2-methyl-1-(piperidin-1-ylmethyl)propyl]benzamide], with above 27000 nM; and `CC(C)[C@@H](CCN1CCCC1)N(C)C(=O)c1ccccc1Cl` [2-Chloro-N-methyl-N-[(1R)-2-methyl-1-(2-pyrrolidin-1-ylethyl)propyl]benzamide], with above 27000 nM.
For the molecule `CC(C)[C@@H](CN1CC[C@H](O)C1)N(C)C(=O)c1cc(C(F)(F)F)ccc1F` [2-Fluoro-N-[(1S)-1-{[(3S)-3-hydroxypyrrolidin-1-yl]methyl}-2-methylpropyl]-N-methyl-5-(trifluoromethyl)benzamide], under setting [2], the IC50 was above 27000 nM.
With `CCC[C@@H](CN1C[C@@H](O)[C@@H]1C)N(C)C(=O)c1ccc(F)c(F)c1` [3,4-Difluoro-N-((S)-1-((2S,3R)-3-hydroxy-2-methylazetidin-1-yl)pentan-2-yl)-N-methylbenzamide], the IC50 under setting [2] was above 27000 nM.
On the same count and under the same terms, under `CC(C)[C@H](CN1CCCC1)N(C)C(=O)c1ccc(F)c(Cl)c1` [3-Chloro-4-fluoro-N-methyl-N-[(1R)-2-methyl-1-(pyrrolidin-1-ylmethyl)propyl]benzamide] stands above 27000 nM; under `CC(CN1CCCC1)N(C)C(=O)c1cccc(Cl)c1` (centres unmarked) [3-Chloro-N-methyl-N-(1-methyl-2-pyrrolidin-1-ylethyl)benzamide], above 27000 nM; under `CC(C)[C@@H](CN1CC[C@H](O)C1)N(C)C(=O)c1cccc(C#N)c1` [3-Cyano-N-[(1S)-1-{[(3S)-3-hydroxypyrrolidin-1-yl]methyl}-2-methylpropyl]-N-methylbenzamide], above 27000 nM.
Same read-out and setting: then `CC(C)[C@H](CN1CCCC1)N(C)C(=O)c1cccc(C#N)c1` [3-Cyano-N-methyl-N-[(1R)-2-methyl-1-(pyrrolidin-1-ylmethyl)propyl]benzamide], with above 27000 nM.

For the origin of these results see patent US8361998B2, “Compounds and their use as IKACh blockers” (AstraZeneca AB, priority 2010, dated 2013).
